Experimental data published in patent publication US9695155B2, “Herbicidal substituted pyrimidinyloxy benzene compounds” (E. I. DU PONT DE NEMOURS AND COMPANY, priority 2013, dated 2017).

What was measured:
[1] = tested on: corn; test: Test A postemergence; type: in vivo, Zea mays
Procedure, shortened: (§1)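 Visual injury scored 0–100 (100 = complete control) against untreated controls about 10 days after treatment in a greenhouse. Test chemicals, formulated with surfactant in non-phytotoxic solvent, were sprayed on soil preemergence or on 2-10 cm, one- to two-leaf plants postemergence.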

[2] = tested on: barnyardgrass; test: Test A preemergence; type: in vivo, Echinochloa crus-galli; conditions: for Barnyardgrass plant response rating: 500 g ai/ha
Procedure, shortened: as §1

[3] = tested on: large (Lg) crabgrass; test: Test C preemergence; type: in vivo, Digitaria sanguinalis; conditions: for Crabgrass, Large plant response rating: preemergence; for Plant response rating, Crabgrass, Large: Preemergence, scale 0 to 100, 0 no effect, 100 complete control
Procedure, shortened: (§2)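 Visual injury score versus untreated controls, 0 = no effect, 100 = complete control, taken 13 to 15 days after treatment in the greenhouse. Pre-emergence pots held loam/sand; post-emergence plants grew in sphagnum peat/vermiculite mix and were sprayed at the 1- to 4-leaf stage.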

[4] = tested on: wheat; test: Test A preemergence; type: in vivo, Triticum aestivum; conditions: for Wheat plant response rating: 500 g ai/ha
Procedure, shortened: as §1

[5] = tested on: soybean; test: Test C preemergence; type: in vivo, Glycine max; conditions: for Soybean plant response rating: preemergence; for Plant response rating, Soybean: Preemergence, scale 0 to 100, 0 no effect, 100 complete control
Procedure, shortened: as §2

[6] = tested on: morningglory; test: Test A preemergence; type: in vivo, Ipomoea spp.; conditions: for Morningglory plant response rating: 500 g ai/ha
Procedure, shortened: as §1

[7] = tested on: Italian ryegrass; test: Test C preemergence; type: in vivo, Lolium multiflorum; conditions: for Ryegrass, Italian plant response rating: preemergence; for Plant response rating, Ryegrass, Italian: Preemergence, scale 0 to 100, 0 no effect, 100 complete control
Procedure, shortened: as §2

[8] = tested on: velvetleaf; test: Test A preemergence; type: in vivo, Abutilon theophrasti; conditions: for Velvetleaf plant response rating: 500 g ai/ha
Procedure, shortened: as §1

[9] = tested on: barnyardgrass; test: Test B flooded paddy test; type: in vivo, Echinochloa crus-galli; conditions: Flood, 250 g ai/ha; 0 to 100 scale where 0 is no effect and 100 is complete control
Procedure, shortened: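 2-leaf stage plants; pots flooded to 3 cm, compound added to paddy water, depth maintained. Greenhouse 13–15 d. Visual rating vs untreated controls, 0 (no effect) to 100 (complete control); dash = no result.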

[10] = tested on: galium; test: Test C preemergence; type: in vivo, Galium aparine; conditions: for Galium plant response rating: preemergence; for Plant response rating, Galium: Preemergence, scale 0 to 100, 0 no effect, 100 complete control
Procedure, shortened: as §2

[11] = tested on: oilseed rape; test: Test C preemergence; type: in vivo, Brassica napus; conditions: for Oilseed Rape plant response rating: preemergence; for Plant response rating, Oilseed Rape: Preemergence, scale 0 to 100, 0 no effect, 100 complete control
Procedure, shortened: as §2

[12] = tested on: barnyardgrass; test: Test C preemergence; type: in vivo, Echinochloa crus-galli; conditions: for Barnyardgrass plant response rating: preemergence; for Plant response rating, Barnyardgrass: Preemergence, scale 0 to 100, 0 no effect, 100 complete control
Procedure, shortened: as §2

[13] = tested on: chickweed; test: Test C postemergence; type: in vivo, Stellaria media; conditions: for Chickweed plant response rating: 16 g ai/ha, visual rating; for Chickweed plant response rating / Plant response rating (0 to 100), Chickweed: postemergence; for Chickweed plant response rating / Plant response rating, Chickweed: scale 0 to 100 (0 no effect, 100 complete control); for Plant response rating (0 to 100), Chickweed: 125 g ai/ha; for Plant response rating, Chickweed: Postemergence
Procedure, shortened: as §2

[14] = tested on: wild oat; test: Test C postemergence; type: in vivo, Avena fatua; conditions: for Plant response rating (0 to 100), Oat, Wild: 125 g ai/ha, postemergence; for Plant response rating, Oat, Wild: Postemergence, scale 0 to 100 (0 no effect, 100 complete control)
Procedure, shortened: as §2

[15] = 125 g ai/ha, 0 to 100 scale where 0 is no effect and 100 is complete control
[16] = 500 g ai/ha, 0 to 100 scale where 0 is no effect and 100 is complete control
[17] = 0 to 100 scale where 0 is no effect and 100 is complete control
[18] = 16 g ai/ha, scale 0 to 100 (0 no effect, 100 complete control)
[19] = 125 g ai/ha, scale 0 (no effect) to 100 (complete control)
[20] = 0 to 100 scale, 0 no effect, 100 complete control, approx. 10 days
[21] = 62 g ai/ha, scale 0 (no effect) to 100 (complete control)

Compound | Plant response rating, Corn [1, 16] | Crabgrass, Large plant response rating [3, 18] | Crabgrass, Large plant response rating [3, 19] | Soybean plant response rating [5, 18] | Soybean plant response rating [5, 19] | Ryegrass, Italian plant response rating [7, 18] | Ryegrass, Italian plant response rating [7, 19] | Plant response rating, Barnyardgrass [9] | Galium plant response rating [10, 18] | Galium plant response rating [10, 19] | Oilseed Rape plant response rating [11, 18] | Oilseed Rape plant response rating [11, 19] | Barnyardgrass plant response rating [12, 18] | Barnyardgrass plant response rating [12, 19] | Plant response rating, Barnyardgrass [2, 15] | Crabgrass, Large plant response rating [3, 21] | Plant response rating, Crabgrass, Large ([3]; 31 g ai/ha) | Soybean plant response rating [5, 21] | Ryegrass, Italian plant response rating [7, 21] | Galium plant response rating [10, 21] | other results
CCOc1cnn(-c2ccccc2Oc2ncc(Cl)cn2)c1 [Compound 187] | 70 | 5 | 100 | 5 | 85 | 0 | 5 | 0 | 30 | 98 | 70 | 90 | 5 | 90 |  |  |  |  |  |  | Corn plant response rating [1, 15]: 10; Barnyardgrass plant response rating (0 to 100 scale, 0 is no effect, 100 is complete control) ([2]; 125 g ai/ha): 80; Barnyardgrass plant response rating [2, 17]: 100; Plant response rating, Crabgrass, Large ([3]; 62 g ai/ha): 100; Wheat plant response rating (0 to 100 scale) ([4]; 125 g ai/ha): 0; Wheat plant response rating [4, 17]: 40; Plant response rating, Soybean ([5]; 62 g ai/ha): 55; Morningglory plant response rating (0 to 100 scale) ([6]; 125 g ai/ha): 0; Morningglory plant response rating [6, 17]: 50; Plant response rating, Ryegrass, Italian ([7]; 62 g ai/ha): 0; Velvetleaf plant response rating (0 to 100 scale) ([8]; 125 g ai/ha): 80; Velvetleaf plant response rating [8, 17]: 100; Plant response rating, Galium ([10]; 62 g ai/ha): 90; Plant response rating, Oilseed Rape ([11]; 62 g ai/ha): 90; Plant response rating, Barnyardgrass ([12]; 62 g ai/ha): 65
N#Cc1cccc(Oc2ncc(F)cn2)c1-n1cc(I)cn1 [Compound 86] | 100 | 85 | 100 | 35 | 85 | 0 | 35 | 0 | 90 | 90 | 25 | 100 | 5 | 95 | 80 | 100 | 100 | 75 | 30 | 98 | Plant response rating, Corn [1, 15]: 50; Barnyardgrass plant response rating [2, 20]: 100; Chickweed plant response rating ([13]; 13 to 15 days): 40; Plant response rating (0 to 100), Chickweed [13]: 80; Plant response rating, Chickweed ([13]; 31 g ai/ha, 13 to 15 days): 55; Plant response rating, Chickweed ([13]; 62 g ai/ha): 60; Plant response rating, Soybean ([5]; 31 g ai/ha): 45; Plant response rating (0 to 100), Oat, Wild [14]: 10; Plant response rating, Oat, Wild ([14]; 31 g ai/ha, 13 to 15 days): 0; Plant response rating, Oat, Wild ([14]; 62 g ai/ha): 5; Plant response rating, Ryegrass, Italian ([7]; 31 g ai/ha): 0; Plant response rating, Galium ([10]; 31 g ai/ha): 80; Oilseed Rape plant response rating [11, 21]: 100; Plant response rating, Oilseed Rape ([11]; 31 g ai/ha): 100; Barnyardgrass plant response rating [12, 21]: 40; Plant response rating, Barnyardgrass ([12]; 31 g ai/ha): 10
FCc1cccc(Oc2ncc(Cl)cn2)c1-n1cc(Br)cn1 [Compound 83] |  | 65 | 100 | 5 | 75 | 0 | 50 | 0 | 0 | 100 | 75 | 100 | 5 | 90 | 60 | 100 | 85 | 60 | 30 | 85 | Plant response rating, Corn [1, 15]: 40; Plant response rating, Corn ([1]; 500 g ai/ha, 0 to 100 scale, 0 no effect, 100 complete control): 60; Barnyardgrass plant response rating [2, 20]: 90; Chickweed plant response rating ([13]; 13 to 15 days): 35; Plant response rating (0 to 100), Chickweed [13]: 70; Plant response rating, Chickweed ([13]; 31 g ai/ha, 13 to 15 days): 40; Plant response rating, Chickweed ([13]; 62 g ai/ha): 60; Plant response rating, Soybean ([5]; 31 g ai/ha): 10; Plant response rating (0 to 100), Oat, Wild [14]: 5; Plant response rating, Oat, Wild ([14]; 31 g ai/ha, 13 to 15 days): 0; Plant response rating, Oat, Wild ([14]; 62 g ai/ha): 10; Plant response rating, Ryegrass, Italian ([7]; 31 g ai/ha): 0; Plant response rating, Galium ([10]; 31 g ai/ha): 0; Oilseed Rape plant response rating [11, 21]: 98; Plant response rating, Oilseed Rape ([11]; 31 g ai/ha): 95; Barnyardgrass plant response rating [12, 21]: 45; Plant response rating, Barnyardgrass ([12]; 31 g ai/ha): 5
Fc1cccc(Oc2ncc(Cl)cn2)c1-n1cc(I)cn1 [Compound 179] | 60 | 55 | 100 | 0 | 65 | 0 | 70 | 20 | 90 | 100 | 60 | 100 | 5 | 100 | 20 | 98 | 90 | 45 | 30 | 98 | Corn plant response rating [1, 15]: 30; Barnyardgrass plant response rating [2, 17]: 100; Wheat plant response rating (0 to 100 scale) ([4]; 125 g ai/ha): 0; Wheat plant response rating [4, 17]: 30; Morningglory plant response rating (0 to 100 scale) ([6]; 125 g ai/ha): 10; Morningglory plant response rating [6, 17]: 80; Velvetleaf plant response rating (0 to 100 scale) ([8]; 125 g ai/ha): 60; Velvetleaf plant response rating [8, 17]: 80; Plant response rating, Galium ([10]; 31 g ai/ha): 95; Oilseed Rape plant response rating [11, 21]: 98; Barnyardgrass plant response rating [12, 21]: 90; Plant response rating, Barnyardgrass ([12]; 31 g ai/ha): 10
Fc1cnc(Oc2cccc(C(F)F)c2-n2cc(Br)cn2)nc1 [Compound 112] | 70 | 35 | 100 | 10 | 95 | 0 | 30 | 0 | 55 | 95 | 65 | 100 | 0 | 90 | 70 | 100 | 100 | 50 | 5 | 100 | Plant response rating, Corn [1, 15]: 30; Barnyardgrass plant response rating [2, 20]: 100; Plant response rating, Wheat [4, 15]: 0; Plant response rating, Soybean ([5]; 31 g ai/ha): 35; Plant response rating, Morningglory [6, 15]: 80; Morningglory plant response rating [6, 20]: 90; Plant response rating, Ryegrass, Italian ([7]; 31 g ai/ha): 0; Plant response rating, Velvetleaf [8, 15]: 90; Plant response rating, Galium ([10]; 31 g ai/ha): 98; Oilseed Rape plant response rating [11, 21]: 95; Plant response rating, Oilseed Rape ([11]; 31 g ai/ha): 90; Barnyardgrass plant response rating [12, 21]: 30; Plant response rating, Barnyardgrass ([12]; 31 g ai/ha): 5
